From ChEMBL document CHEMBL1255208, “A class of novel conjugates of substituted purine and Gly-AA-OBzl: synthesis and evaluation of orally analgesic activity” (2010)

Experiments:
Assay type in all cases: functional
Mus musculus [1] = assay: Analgesic activity in mouse assessed as pain threshold variation at 25 umol/kg, po after 120 mins (RVb = 0.69 +/- 1.98 %)
Mus musculus [2] = assay: Analgesic activity in mouse assessed as pain threshold variation at 25 umol/kg, po after 30 mins (RVb = -1 +/- 2.8 %)
Mus musculus [3] = assay: Analgesic activity in mouse assessed as pain threshold variation at 25 umol/kg, po after 60 mins (RVb = -6.5 +/- 1.79 %)
Mus musculus [4] = assay: Analgesic activity in mouse assessed as pain threshold variation at 25 umol/kg, po after 90 mins (RVb = 0.2 +/- 3.75 %)
Mus musculus [5] = assay: Analgesic activity in mouse assessed as pain threshold variation at 25 umol/kg, po after 150 mins (RVb = 3.98 +/- 4.03 %)
Mus musculus [6] = assay: Analgesic activity in mouse assessed as pain threshold variation at 25 umol/kg, po after 180 mins (RVb = -5.10 %)
Mus musculus [7] = assay: Analgesic activity in mouse assessed as pain threshold variation at 30 umol/kg, po after 30 mins (RVb = 0.13 +/- 0.14 %)
Mus musculus [8] = assay: Analgesic activity in mouse assessed as pain threshold variation at 3 umol/kg, po after 30 mins (RVb = 0.13 +/- 0.14 %)
Mus musculus [9] = assay: Analgesic activity in mouse assessed as pain threshold variation at 0.3 umol/kg, po after 30 mins (RVb = 0.13 +/- 0.14 %)
Mus musculus [10] = assay: Analgesic activity in mouse assessed as pain threshold variation at 30 umol/kg, po after 60 mins (RVb = 0.15 +/- 0.16 %)
Mus musculus [11] = assay: Analgesic activity in mouse assessed as pain threshold variation at 3 umol/kg, po after 60 mins (RVb = 0.15 +/- 0.16 %)
Mus musculus [12] = assay: Analgesic activity in mouse assessed as pain threshold variation at 0.3 umol/kg, po after 60 mins (RVb = 0.15 +/- 0.16 %)
Mus musculus [13] = assay: Analgesic activity in mouse assessed as pain threshold variation at 30 umol/kg, po after 90 mins (RVb = 0.17 +/- 0.14 %)
Mus musculus [14] = assay: Analgesic activity in mouse assessed as pain threshold variation at 3 umol/kg, po after 90 mins (RVb = 0.17 +/- 0.14 %)
Mus musculus [15] = assay: Analgesic activity in mouse assessed as pain threshold variation at 0.3 umol/kg, po after 90 mins (RVb = 0.17 +/- 0.14 %)
Mus musculus [16] = assay: Analgesic activity in mouse assessed as pain threshold variation at 30 umol/kg, po after 120 mins (RVb = 0.18 +/- 0.15 %)
Mus musculus [17] = assay: Analgesic activity in mouse assessed as pain threshold variation at 3 umol/kg, po after 120 mins (RVb = 0.18 +/- 0.15 %)
Mus musculus [18] = assay: Analgesic activity in mouse assessed as pain threshold variation at 0.3 umol/kg, po after 120 mins (RVb = 0.18 +/- 0.15 %)
Mus musculus [19] = assay: Analgesic activity in mouse assessed as pain threshold variation at 30 umol/kg, po after 150 mins (RVb = 0.16 +/- 0.13 %)
Mus musculus [20] = assay: Analgesic activity in mouse assessed as pain threshold variation at 3 umol/kg, po after 150 mins (RVb = 0.16 +/- 0.13 %)
Mus musculus [21] = assay: Analgesic activity in mouse assessed as pain threshold variation at 0.3 umol/kg, po after 150 mins (RVb = 0.16 +/- 0.13 %)
Mus musculus [22] = assay: Analgesic activity in mouse assessed as pain threshold variation at 30 umol/kg, po after 180 mins (RVb = 0.15 +/- 0.12 %)
Mus musculus [23] = assay: Analgesic activity in mouse assessed as pain threshold variation at 3 umol/kg, po after 180 mins (RVb = 0.15 +/- 0.12 %)
Mus musculus [24] = assay: Analgesic activity in mouse assessed as pain threshold variation at 0.3 umol/kg, po after 180 mins (RVb = 0.15 +/- 0.12 %)

Question: How did the Activity (Mus musculus [1]) turn out when N=C(N)NCCC[C@H](NC(=O)CN(c1nc(Cl)nc2c1ncn2C1CCCCO1)C1CC1)C(=O)OCc1ccccc1 (stereo partly drawn) was run?
Answer: 38.16%

Question: And the Activity (Mus musculus [2])?
Answer: 34.27%

Question: And the Activity (Mus musculus [3])?
Answer: 52.35%

Question: What about the Activity (Mus musculus [4]) of the same molecule?
Answer: 61.58%

Question: What about the Activity (Mus musculus [5]) of the same molecule?
Answer: 19.6%

Question: What about the Activity (Mus musculus [6]) of the same molecule?
Answer: 7.97%

Question: What about the Activity (Mus musculus [7]) of the same molecule?
Answer: 39.41%

Question: And the Activity (Mus musculus [8])?
Answer: 20.55%

Question: What about the Activity (Mus musculus [9]) of the same molecule?
Answer: 12.15%

Question: And the Activity (Mus musculus [10])?
Answer: 57.51%

Question: What about the Activity (Mus musculus [11]) of the same molecule?
Answer: 41.07%

Question: And the Activity (Mus musculus [12])?
Answer: 25.11%

Question: And the Activity (Mus musculus [13])?
Answer: 66.71%

Question: What about the Activity (Mus musculus [14]) of the same molecule?
Answer: 50.14%

Question: What about the Activity (Mus musculus [15]) of the same molecule?
Answer: 32.88%

Question: What about the Activity (Mus musculus [16]) of the same molecule?
Answer: 43.3%

Question: What about the Activity (Mus musculus [17]) of the same molecule?
Answer: 29.09%

Question: And the Activity (Mus musculus [18])?
Answer: 12.14%

Question: And the Activity (Mus musculus [19])?
Answer: 24.69%

Question: And the Activity (Mus musculus [20])?
Answer: 15%

Question: And the Activity (Mus musculus [21])?
Answer: 10.03%

Question: What about the Activity (Mus musculus [22]) of the same molecule?
Answer: 14.01%

Question: And the Activity (Mus musculus [23])?
Answer: 10.34%

Question: And the Activity (Mus musculus [24])?
Answer: 7.56%

Question: What does the source list for O=C(CN(c1nc(Cl)nc2c1ncn2C1CCCCO1)C1CC1)NCC(=O)OCc1ccccc1 (stereo not drawn)?
Answer: Activity (Mus musculus [1]): 17.23%; Activity (Mus musculus [2]): 55.72%; Activity (Mus musculus [3]): 40.44%; Activity (Mus musculus [4]): 25.94%; Activity (Mus musculus [5]): 7.26%; Activity (Mus musculus [6]): 0.06%; Activity (Mus musculus [7]): 60.84%; Activity (Mus musculus [8]): 45.27%; Activity (Mus musculus [9]): 18%; Activity (Mus musculus [10]): 45.52%; Activity (Mus musculus [11]): 29.07%; Activity (Mus musculus [12]): 16.24%; Activity (Mus musculus [13]): 31.04%; Activity (Mus musculus [14]): 20.25%; Activity (Mus musculus [15]): 11.2%; Activity (Mus musculus [16]): 22.31%; Activity (Mus musculus [17]): 14.53%; Activity (Mus musculus [18]): 10.02%; Activity (Mus musculus [19]): 12.33%; Activity (Mus musculus [20]): 10.04%; Activity (Mus musculus [21]): 9.45%; Activity (Mus musculus [22]): 10.16%; Activity (Mus musculus [23]): 9.2%; Activity (Mus musculus [24]): 9%
